Experimental data reported in US6423869B1, “Polyol-amino acid compounds having anti-helicobacter pylori activity” (Takeda Chemical Industries, Inc., priority 1997, dated 2002).
Converted amounts (≈) assume the structure as drawn.

Tests used:
[1] = system: gram-negative bacteria; conditions: cited from earlier work
[2] = system: Helicobacter pylori TN2GF4; test: Gastric infection in mongolian gerbils, repetitive administration; assay type: in vivo
Description: Five-week-old MON/Jms/Gbs mongolian gerbils were inoculated intragastrically with 10^7.58 CFU of Helicobacter pylori TN2GF4. Four weeks after infection, a compound of the Example 47, suspended in 0.5% methyl cellulose, was administered orally at a dose of 30 mg/kg twice daily for 2 days. The animals were killed on the day after the final treatment. Stomachs were removed and homogenized with 3 ml of brucella broth, and the bacterial count in the homogenates was determined by serial dilution and titration on modified Skirrow's plates. The plates were incubated at 37° C. for 4 days in a microaerobic atmosphere prior to counting. No detectable Helicobacter pylori in the stomach on the day after final treatment was defined as clearance. Effect of repetitive administration of a compound of the Example 47 against gastric infection caused by H. pylori TN2GF4 in MON/JmsIGbs mongolian gerbils

[3] = system: Helicobacter pylori (NCTC 11637); test: In vitro antibacterial test, agar dilution method (MIC); assay type: cell-based; conditions: NCTC11637, 96 h, 7% horse blood-Brucella agar, 37° C., 4 days, read-out: MIC (minimal inhibitory concentration)
[4] = system: Helicobacter pylori TN2F4; test: In vivo antibacterial test in infected mice; conditions: mice (Crj: ICR), 50 mg/kg orally twice daily for 2 days, cleared/total (%), hydrochloride
Description: In vivo Antibacterial Test
Mice (Crj: ICR, male, aged 5 weeks) were deprived of food for 20 hours and 6.17×10^7 CFU/mouse of Helicobacter pylori TN2F4 was inoculated into the stomach. Starting 11 days after infection, 50 mg/kg of the test compound suspended in 0.5% methyl cellulose/water was adminstered orally twice. daily, in the morning and evening, for 2 consecutive days. On the day following the last dose, the stomach was isolated from the infected mouse and homogenized and a 10-fold dilution series of the homogenate was inoculated on activated charcoal-modified Skirrow medium. Cultivation was carried out microaerobically at 37° C. for 4 days and the eradication rate was determined according to growth of the bacteria.
The number of bacteria was expressed in mean±standard error and the statistical analysis was made in comparison with the control group by the Dunnett method.

[5] = 30 mg/kg twice daily for 2 days

NCC1OC(OC2C(N)CC(NC(=O)C(O)C(O)C(O)C(N)CO)C(O)C2OC2OC(CO)C(O)C2O)C(N)C(O)C1O (stereo not shown)
activity against gram-negative bacteria [1]: active against gram-negative bacteria

C=CC[C@H](N)C(=O)N[C@@H](CO)[C@@H](O)[C@@H](O)[C@H](O)C(=O)N[C@@H](CC(=O)O)c1ccccc1 [Example 47, (S)-3-[(2S,3R,4R,5S)-5-((S)-2-amino-4-pentenoyl)amino-2,3,4,6-tetrahydroxyhexanoyl]amino-3-phenylpropionic acid]
clearance attained (gerbils cleared out of total) [2, 5]: 2 out of 4 | number of infecting organism [2, 5]: decreased the number of infecting organism | Bacterial recovery Log CFU/gastric wall Mean ± SE ([2]; MON/Jms/Gbs mongolian gerbils, 30 mg/kg orally twice daily for 2 days): 2.23 ± 0.44 Log CFU/gastric wall

CC(C)C[C@H](NC(=O)[C@@H](NC(=O)[C@@H](N)C(C)C)C(C)C)C(=O)N[C@@H](CO)[C@@H](O)[C@@H](O)[C@H](O)C(=O)N[C@@H](CC(=O)O)c1ccccc1 [HC-70I, (S)-3-[(2S,3R,4R,5S)-2,3,4,6-tetrahydroxy-5-(L-valyl-L-valyl-L-leucyl)aminohexanoyl]amino-3-phenylpropionic acid]
MIC [3]: 0.025 µg/mL (≈ 0.0382 µM)

CC(C)C[C@H](NC(=O)[C@@H](N)C(C)C)C(=O)N[C@@H](CO)[C@@H](O)[C@@H](O)[C@H](O)C(=O)N[C@@H](CC(=O)O)c1ccccc1 [HC-70II, (S)-3-[(2S,3R,4R,5S)-2,3,4,6-tetrahydroxy-5-(L-valyl-L-leucyl)aminohexanoyl]amino-3-phenylpropionic acid]
MIC [3]: 0.025 µg/mL (≈ 0.0451 µM)

CC(C)C[C@H](NC(=O)[C@@H](N)C(C)C)C(=O)N[C@@H](CO)[C@@H](O)[C@@H](O)[C@H](O)C(=O)N[C@@H](CC(=O)O)c1ccccc1.Cl [HC-70II.HCl, (S)-3-[(2S,3R,4R,5S)-2,3,4,6-tetrahydroxy-5-(L-valyl-L-leucyl)aminohexanoyl]amino-3-phenylpropionate hydrochloride]
Clearance rate (%) [4]: 100%
